Compound: Cc1cnc(Nc2ccc(OCCN3CCCC3)cc2)nc1Nc1cccc(S(=O)(=O)NC(C)(C)C)c1 [Fedratinib] + CC(C)C[C@H](NC(=O)[C@H](Cc1ccccc1)NC(=O)c1cnccn1)B(O)O [Bortezomib] (partner 0.002 µM)
Assay: relative viability (nuclei count vs DMSO), 5 days (fraction); higher = more cells survive
Conditions: first compound 1 µM
Method in brief: (§1)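 After 5 days of treatment, lung cancer cells in 1536-well plates were fixed and stained in a single step (final 0.05% Triton X-100, 1% formaldehyde, 1 ug/ml Hoechst) and their nuclei counted on 4× images. Treatment had been applied by pin tool the day after seeding as one drug alone or as a fixed anchor-drug dose with five library-drug doses (not always all listed) in √10 steps. Relative viability is the nuclei count of treated wells divided by that of vehicle wells, and values are medians of duplicate plates.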

Cell Line | relative viability
SW 1573 | 0.983
NCI-H838 | 0.208
LCLC-103H | 0.897
NCI-H520 | 0.173
NCI-H2126 | 1.07
EMC-BAC-2 | 1.09
NCI-H2085 | 0.416
Calu-6 | 0.771
HCC-366 | 0.174
NCI-H1666 | 0.276
NCI-H596 | 0.919
NCI-H2087 | 0.259
H3255 | 0.605
COR-L23 | 0.938
IA-LM | 0.642
HCC-44 | 0.734
NCI-H1299 | 1.01
NCI-H1792 | 0.887
NCI-H1563 | 0.631
ABC-1 | 0.186

Compound: Cc1cnc(Nc2ccc(OCCN3CCCC3)cc2)nc1Nc1cccc(S(=O)(=O)NC(C)(C)C)c1 [Fedratinib] + Cc1cc(Nc2cc(N3CCN(C)CC3)nc(Sc3ccc(NC(=O)C4CC4)cc3)n2)n[nH]1 [Tozasertib] (partner 0.1 µM)
Assay: as above
Conditions: first compound 0.1 µM
Method in brief: as §1

Cell Line | relative viability
NCI-H2342 | 0.51
NCI-H1623 | 0.414
NCI-H727 | 0.493
NCI-H1993 | 0.58
SW 1573 | 0.148
NCI-H838 | 0.248
LCLC-103H | 0.304
NCI-H520 | 0.438
NCI-H2126 | 0.429
EMC-BAC-2 | 0.201
NCI-H2085 | 0.478
HCC-366 | 0.0591
NCI-H1666 | 0.558
NCI-H596 | 0.899
LK-2 | 0.186
NCI-H2087 | 0.205
NCI-H1648 | 0.409
SK-MES-1 | 0.375
H3255 | 0.578
COR-L23 | 0.103
NCI-H2170 | 0.481
HCC-44 | 0.258
NCI-H522 | 0.527
SW 900 | 0.358
NCI-H1395 | 0.623
NCI-H1793 | 0.263
NCI-H1944 | 0.25
ABC-1 | 0.179
NCI-H358 | 0.0945

Same assay, conditions: first compound 0.3162 µM

Cell Line | relative viability
NCI-H2342 | 0.713
NCI-H1623 | 0.486
NCI-H727 | 0.823
NCI-H1650 | 0.408
NCI-H1993 | 0.575
SW 1573 | 0.21
NCI-H838 | 0.271
LCLC-103H | 0.524
NCI-H520 | 0.467
NCI-H2126 | 0.818
EMC-BAC-2 | 0.268
NCI-H2085 | 0.827
HCC-366 | 0.123
NCI-H1666 | 0.599
NCI-H596 | 0.878
LK-2 | 0.193
NCI-H2087 | 0.206
NCI-H1648 | 0.567
SK-MES-1 | 0.857
H3255 | 0.537
COR-L23 | 0.186
NCI-H2170 | 0.743
HCC-44 | 0.843
NCI-H522 | 0.514
SW 900 | 0.502
NCI-H1395 | 0.874
NCI-H1793 | 0.353
NCI-H1944 | 0.225
ABC-1 | 0.146
NCI-H358 | 0.0925

Same assay, conditions: first compound 1 µM

Cell Line | relative viability
NCI-H2342 | 0.695
NCI-H1623 | 0.397
NCI-H727 | 0.656
NCI-H1650 | 0.335
NCI-H1993 | 0.596
SW 1573 | 0.14
NCI-H838 | 0.21
LCLC-103H | 0.381
NCI-H520 | 0.405
NCI-H2126 | 0.781
EMC-BAC-2 | 0.227
NCI-H2085 | 0.764
HCC-366 | 0.072
NCI-H1666 | 0.514
NCI-H596 | 0.916
LK-2 | 0.161
NCI-H2087 | 0.179
NCI-H1648 | 0.422
SK-MES-1 | 0.737
H3255 | 0.655
COR-L23 | 0.168
NCI-H2170 | 0.599
HCC-44 | 0.805
NCI-H522 | 0.573
SW 900 | 0.434
NCI-H1395 | 0.653
NCI-H1793 | 0.288
NCI-H1944 | 0.209
ABC-1 | 0.138
NCI-H358 | 0.0987

Compound: Cc1cnc(Nc2ccc(OCCN3CCCC3)cc2)nc1Nc1cccc(S(=O)(=O)NC(C)(C)C)c1 [Fedratinib] + Cc1nc(Nc2ncc(C(=O)Nc3c(C)cccc3Cl)s2)cc(N2CCN(CCO)CC2)n1 [Dasatinib] (partner 0.075 µM)
Assay: as above
Conditions: first compound 0.1 µM
Method in brief: as §1

Cell Line | relative viability
NCI-H2342 | 0.314
NCI-H1623 | 0.339
NCI-H727 | 0.296
NCI-H1993 | 0.591
SW 1573 | 0.612
NCI-H838 | 0.281
LCLC-103H | 0.492
NCI-H520 | 0.18
NCI-H2126 | 0.577
EMC-BAC-2 | 0.289
NCI-H2085 | 0.259
HCC-366 | 0.601
NCI-H1666 | 0.843
NCI-H596 | 0.512
LK-2 | 0.206
NCI-H2087 | 0.803
SK-MES-1 | 0.285
H3255 | 0.397
COR-L23 | 0.487
NCI-H2170 | 0.566
NCI-H522 | 0.88
SW 900 | 0.498
NCI-H1395 | 0.36
NCI-H1792 | 0.619
NCI-H1793 | 0.4
NCI-H1563 | 0.504
NCI-H1944 | 0.21
ABC-1 | 0.499
NCI-H358 | 0.148

Same assay, conditions: first compound 0.3162 µM

Cell Line | relative viability
NCI-H2342 | 0.309
NCI-H1623 | 0.45
NCI-H727 | 0.299
NCI-H1650 | 0.295
NCI-H1993 | 0.545
SW 1573 | 0.614
NCI-H838 | 0.29
LCLC-103H | 0.294
NCI-H520 | 0.205
NCI-H2126 | 0.655
EMC-BAC-2 | 0.362
NCI-H2085 | 0.26
HCC-366 | 0.595
NCI-H1666 | 0.675
NCI-H596 | 0.628
LK-2 | 0.227
NCI-H2087 | 0.536
SK-MES-1 | 0.427
H3255 | 0.345
COR-L23 | 0.484
NCI-H2170 | 0.416
NCI-H522 | 1.05
SW 900 | 0.51
NCI-H1395 | 0.45
NCI-H1792 | 0.765
NCI-H1793 | 0.348
NCI-H1563 | 0.44
NCI-H1944 | 0.235
ABC-1 | 0.629
NCI-H358 | 0.147

Same assay, conditions: first compound 1 µM

Cell Line | relative viability
NCI-H2342 | 0.273
NCI-H1623 | 0.408
NCI-H727 | 0.392
NCI-H1650 | 0.231
NCI-H1993 | 0.62
SW 1573 | 0.305
NCI-H838 | 0.239
LCLC-103H | 0.511
NCI-H520 | 0.196
NCI-H2126 | 0.426
EMC-BAC-2 | 0.285
NCI-H2085 | 0.246
HCC-366 | 0.428
NCI-H1666 | 0.731
NCI-H596 | 0.538
LK-2 | 0.168
NCI-H2087 | 0.648
SK-MES-1 | 0.272
H3255 | 0.293
COR-L23 | 0.512
NCI-H2170 | 0.339
NCI-H522 | 0.599
SW 900 | 0.643
NCI-H1395 | 0.378
NCI-H1792 | 0.81
NCI-H1793 | 0.362
NCI-H1563 | 0.429
NCI-H1944 | 0.196
ABC-1 | 0.569
NCI-H358 | 0.129

Compound: Cc1cnc(Nc2ccc(OCCN3CCCC3)cc2)nc1Nc1cccc(S(=O)(=O)NC(C)(C)C)c1 [Fedratinib] + O=C(CCCCCCC(=O)Nc1ccccc1)NO [Vorinostat] (partner 1 µM)
Assay: as above
Conditions: first compound 0.1 µM
Method in brief: as §1

Cell Line | relative viability
NCI-H2342 | 0.94
NCI-H727 | 1.15
NCI-H1650 | 0.433
NCI-H1993 | 0.819
SW 1573 | 0.744
NCI-H838 | 0.713
LCLC-103H | 0.768
NCI-H520 | 0.657
NCI-H2126 | 0.732
EMC-BAC-2 | 0.418
NCI-H2085 | 0.77
HCC-366 | 0.302
NCI-H1666 | 1.07
NCI-H596 | 0.602
LK-2 | 0.37
NCI-H2087 | 0.728
NCI-H1648 | 0.291
SK-MES-1 | 1.08
H3255 | 0.84
COR-L23 | 0.407
IA-LM | 0.901
NCI-H2170 | 0.886
HCC-44 | 1.13
NCI-H522 | 0.703
SW 900 | 0.344
NCI-H1395 | 0.588
NCI-H1793 | 0.749
NCI-H1944 | 0.668
ABC-1 | 0.983
NCI-H358 | 0.656

Same assay, conditions: first compound 0.3162 µM

Cell Line | relative viability
NCI-H2342 | 0.71
NCI-H727 | 1.08
NCI-H1650 | 0.581
NCI-H1993 | 0.872
SW 1573 | 0.701
NCI-H838 | 0.693
LCLC-103H | 0.752
NCI-H520 | 0.654
NCI-H2126 | 0.786
EMC-BAC-2 | 0.566
NCI-H2085 | 0.825
HCC-366 | 0.343
NCI-H1666 | 1.1
NCI-H596 | 0.573
LK-2 | 0.242
NCI-H2087 | 0.734
NCI-H1648 | 0.36
SK-MES-1 | 1.09
H3255 | 0.876
COR-L23 | 0.487
IA-LM | 0.95
NCI-H2170 | 0.776
HCC-44 | 1.08
NCI-H522 | 0.82
SW 900 | 0.377
NCI-H1395 | 0.807
NCI-H1793 | 0.621
NCI-H1944 | 0.571
ABC-1 | 1.06
NCI-H358 | 0.654

Same assay, conditions: first compound 1 µM

Cell Line | relative viability
NCI-H2342 | 0.926
NCI-H727 | 1.13
NCI-H1650 | 0.605
NCI-H1993 | 0.864
SW 1573 | 0.413
NCI-H838 | 0.575
LCLC-103H | 0.718
NCI-H520 | 0.634
NCI-H2126 | 0.708
EMC-BAC-2 | 0.317
NCI-H2085 | 0.787
HCC-366 | 0.249
NCI-H1666 | 0.928
NCI-H596 | 0.439
LK-2 | 0.303
NCI-H2087 | 0.825
NCI-H1648 | 0.616
SK-MES-1 | 0.976
H3255 | 0.696
COR-L23 | 0.392
IA-LM | 0.979
NCI-H2170 | 0.654
HCC-44 | 1.01
NCI-H522 | 0.895
SW 900 | 0.462
NCI-H1395 | 0.561
NCI-H1793 | 0.515
NCI-H1944 | 0.516
ABC-1 | 0.888
NCI-H358 | 0.634
